Experimental data reported in ChEMBL document CHEMBL1147144, “Novel styrylpyridines as probes for SPECT imaging of amyloid plaques” (J Med Chem, 2007).

What was measured:
[1] = target: Amyloid-beta precursor protein (Homo sapiens, UniProt P05067); assay: Displacement of […] from Abeta peptide plaques in Alzheimer's disease patient brain
[2] = test system: Heart; assay: Biodistribution in ICR mouse heart at 5 to 10 uCi, iv after 2 mins; type: ADME, organism-based; settings: in vivo
[3] = test system: Heart; assay: Biodistribution in ICR mouse heart at 5 to 10 uCi, iv after 30 mins; type: ADME, organism-based; settings: in vivo, 0.5 h
[4] = test system: Heart; assay: Biodistribution in ICR mouse heart at 5 to 10 uCi, iv after 1 hr; type: ADME, organism-based; settings: in vivo
[5] = test system: Kidney; assay: Biodistribution in ICR mouse kidney at 5 to 10 uCi, iv after 2 hrs; type: ADME, organism-based; settings: in vivo
[6] = test system: Spleen; assay: Biodistribution in ICR mouse spleen at 5 to 10 uCi, iv after 2 mins; type: ADME, organism-based; settings: in vivo
[7] = test system: Spleen; assay: Biodistribution in ICR mouse spleen at 5 to 10 uCi, iv after 30 mins; type: ADME, organism-based; settings: in vivo, 0.5 h
[8] = test system: Heart; assay: Biodistribution in ICR mouse heart at 5 to 10 uCi, iv after 2 hrs; type: ADME, organism-based; settings: in vivo
[9] = test system: Muscle tissue; assay: Biodistribution in ICR mouse muscle at 5 to 10 uCi, iv after 2 mins; type: ADME, organism-based; settings: in vivo
[10] = test system: Muscle tissue; assay: Biodistribution in ICR mouse muscle at 5 to 10 uCi, iv after 30 mins; type: ADME, organism-based; settings: in vivo, 0.5 h
[11] = test system: Muscle tissue; assay: Biodistribution in ICR mouse muscle at 5 to 10 uCi, iv after 1 hr; type: ADME, organism-based; settings: in vivo
[12] = test system: Muscle tissue; assay: Biodistribution in ICR mouse muscle at 5 to 10 uCi, iv after 2 hrs; type: ADME, organism-based; settings: in vivo
[13] = test system: Lung; assay: Biodistribution in ICR mouse lung at 5 to 10 uCi, iv after 2 mins; type: ADME, organism-based; settings: in vivo
[14] = test system: Lung; assay: Biodistribution in ICR mouse lung at 5 to 10 uCi, iv after 30 mins; type: ADME, organism-based; settings: in vivo, 0.5 h
[15] = test system: Lung; assay: Biodistribution in ICR mouse lung at 5 to 10 uCi, iv after 1 hr; type: ADME, organism-based; settings: in vivo
[16] = test system: Lung; assay: Biodistribution in ICR mouse lung at 5 to 10 uCi, iv after 2 hrs; type: ADME, organism-based; settings: in vivo
[17] = test system: Kidney; assay: Biodistribution in ICR mouse kidney at 5 to 10 uCi, iv after 2 mins; type: ADME, organism-based; settings: in vivo
[18] = test system: Kidney; assay: Biodistribution in ICR mouse kidney at 5 to 10 uCi, iv after 30 mins; type: ADME, organism-based; settings: in vivo, 0.5 h
[19] = test system: Kidney; assay: Biodistribution in ICR mouse kidney at 5 to 10 uCi, iv after 1 hr; type: ADME, organism-based; settings: in vivo
[20] = test system: Spleen; assay: Biodistribution in ICR mouse spleen at 5 to 10 uCi, iv after 1 hr; type: ADME, organism-based; settings: in vivo
[21] = test system: Spleen; assay: Biodistribution in ICR mouse spleen at 5 to 10 uCi, iv after 2 hrs; type: ADME, organism-based; settings: in vivo
[22] = test system: Liver; assay: Biodistribution in ICR mouse liver at 5 to 10 uCi, iv after 2 mins; type: ADME, organism-based; settings: in vivo
[23] = test system: Liver; assay: Biodistribution in ICR mouse liver at 5 to 10 uCi, iv after 30 mins; type: ADME, organism-based; settings: in vivo, 0.5 h
[24] = test system: Liver; assay: Biodistribution in ICR mouse liver at 5 to 10 uCi, iv after 1 hr; type: ADME, organism-based; settings: in vivo
[25] = test system: Liver; assay: Biodistribution in ICR mouse liver at 5 to 10 uCi, iv after 2 hrs; type: ADME, organism-based; settings: in vivo
[26] = test system: Zone of skin; assay: Biodistribution in ICR mouse skin at 5 to 10 uCi, iv after 2 mins; type: ADME, organism-based; settings: in vivo
[27] = test system: Zone of skin; assay: Biodistribution in ICR mouse skin at 5 to 10 uCi, iv after 30 mins; type: ADME, organism-based; settings: in vivo, 0.5 h
[28] = test system: Zone of skin; assay: Biodistribution in ICR mouse skin at 5 to 10 uCi, iv after 1 hr; type: ADME, organism-based; settings: in vivo
[29] = test system: Zone of skin; assay: Biodistribution in ICR mouse skin at 5 to 10 uCi, iv after 2 hrs; type: ADME, organism-based; settings: in vivo
[30] = test system: Brain; assay: Biodistribution in ICR mouse brain at 5 to 10 uCi, iv after 2 mins; type: ADME, organism-based; settings: in vivo
[31] = test system: Brain; assay: Biodistribution in ICR mouse brain at 5 to 10 uCi, iv after 30 mins; type: ADME, organism-based; settings: in vivo, 0.5 h
[32] = test system: Brain; assay: Biodistribution in ICR mouse brain at 5 to 10 uCi, iv after 1 hr; type: ADME, organism-based; settings: in vivo
[33] = test system: Brain; assay: Biodistribution in ICR mouse brain at 5 to 10 uCi, iv after 2 hrs; type: ADME, organism-based; settings: in vivo
[34] = test system: Thyroid gland; assay: Biodistribution in ICR mouse thyroid at 5 to 10 uCi, iv after 2 mins; type: ADME, organism-based; settings: in vivo
[35] = test system: Thyroid gland; assay: Biodistribution in ICR mouse thyroid at 5 to 10 uCi, iv after 30 mins; type: ADME, organism-based; settings: in vivo, 0.5 h
[36] = test system: Thyroid gland; assay: Biodistribution in ICR mouse thyroid at 5 to 10 uCi, iv after 1 hr; type: ADME, organism-based; settings: in vivo
[37] = test system: Thyroid gland; assay: Biodistribution in ICR mouse thyroid at 5 to 10 uCi, iv after 2 hrs; type: ADME, organism-based; settings: in vivo
[38] = test system: Brain; assay: Ratio of drug distribution in brain after 2 mins to 30 mins in ICR mouse at 5 to 10 uCi, iv; type: ADME, organism-based; settings: in vivo
[39] = Partition coefficient, log P at pH 7.4; type: physicochemical; settings: octanol/water
[40] = test system: Blood; assay: Biodistribution in ICR mouse blood at 5 to 10 uCi, iv after 2 mins; type: ADME, organism-based; settings: in vivo
[41] = test system: Blood; assay: Biodistribution in ICR mouse blood at 5 to 10 uCi, iv after 30 mins; type: ADME, organism-based; settings: in vivo, 0.5 h
[42] = test system: Blood; assay: Biodistribution in ICR mouse blood at 5 to 10 uCi, iv after 1 hr; type: ADME, organism-based; settings: in vivo
[43] = test system: Blood; assay: Biodistribution in ICR mouse blood at 5 to 10 uCi, iv after 2 hrs; type: ADME, organism-based; settings: in vivo

Sequence of Amyloid-beta precursor protein (P05067 whole entry): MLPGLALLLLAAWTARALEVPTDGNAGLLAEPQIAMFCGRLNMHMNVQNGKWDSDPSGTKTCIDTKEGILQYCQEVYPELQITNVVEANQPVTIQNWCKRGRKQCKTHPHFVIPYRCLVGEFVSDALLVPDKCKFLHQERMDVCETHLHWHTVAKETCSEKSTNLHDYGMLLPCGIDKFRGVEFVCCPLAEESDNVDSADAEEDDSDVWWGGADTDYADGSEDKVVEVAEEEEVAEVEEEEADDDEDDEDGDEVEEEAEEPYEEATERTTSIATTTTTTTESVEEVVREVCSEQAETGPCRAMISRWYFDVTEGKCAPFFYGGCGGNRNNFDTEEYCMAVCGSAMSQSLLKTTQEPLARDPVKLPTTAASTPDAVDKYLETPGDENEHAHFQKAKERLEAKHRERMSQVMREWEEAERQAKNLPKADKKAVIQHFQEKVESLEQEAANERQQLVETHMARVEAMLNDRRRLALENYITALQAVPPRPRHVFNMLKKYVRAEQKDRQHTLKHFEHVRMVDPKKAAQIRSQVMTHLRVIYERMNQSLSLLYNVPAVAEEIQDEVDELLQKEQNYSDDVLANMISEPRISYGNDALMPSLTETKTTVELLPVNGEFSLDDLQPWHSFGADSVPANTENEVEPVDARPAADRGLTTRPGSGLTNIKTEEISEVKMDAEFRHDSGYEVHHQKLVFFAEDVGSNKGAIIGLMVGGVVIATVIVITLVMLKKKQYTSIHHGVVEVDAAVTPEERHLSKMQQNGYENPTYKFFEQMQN

Compound: Oc1ccc(/C=C/c2cnc(OCCOCCOCCF)c(I)c2)cc1
- Ki [1]: 0.021 µM

Compound: CNc1ccc(/C=C/c2cnc(OCCO)c([125I])c2)cc1
- Drug uptake [2]: 7.16 % ID/g
- Drug uptake [3]: 1.5 % ID/g
- Drug uptake [4]: 0.88 % ID/g
- Drug uptake [5]: 1.53 % ID/g
- Drug uptake [6]: 4.08 % ID/g
- Drug uptake [7]: 1.34 % ID/g
- Drug uptake [8]: 0.76 % ID/g
- Drug uptake [9]: 1.15 % ID/g
- Drug uptake [10]: 0.91 % ID/g
- Drug uptake [11]: 0.42 % ID/g
- Drug uptake [12]: 0.38 % ID/g
- Drug uptake [13]: 7.43 % ID/g
- Drug uptake [14]: 2.67 % ID/g
- Drug uptake [15]: 1.76 % ID/g
- Drug uptake [16]: 1.58 % ID/g
- Drug uptake [17]: 11.5 % ID/g
- Drug uptake [18]: 3.73 % ID/g
- Drug uptake [19]: 2.16 % ID/g
- Drug uptake [20]: 0.87 % ID/g
- Drug uptake [21]: 1.08 % ID/g
- Drug uptake [22]: 20.8 % ID/g
- Drug uptake [23]: 12.6 % ID/g
- Drug uptake [24]: 5.62 % ID/g
- Drug uptake [25]: 3.41 % ID/g
- Drug uptake [26]: 0.95 % ID/g
- Drug uptake [27]: 1.86 % ID/g
- Drug uptake [28]: 1.29 % ID/g
- Drug uptake [29]: 1.43 % ID/g
- Drug uptake [30]: 8.04 % ID/g
- Drug uptake [31]: 0.88 % ID/g
- Drug uptake [32]: 0.26 % ID/g
- Drug uptake [33]: 0.15 % ID/g
- Drug uptake [34]: 6.31 % ID/g
- Drug uptake [35]: 17.2 % ID/g
- Drug uptake [36]: 36.7 % ID/g
- Drug uptake [37]: 99.9 % ID/g
- Ratio [38]: 9.13
- logD [39]: 2.2
- Drug uptake [40]: 4.14 % ID/g
- Drug uptake [41]: 3.08 % ID/g
- Drug uptake [42]: 1.81 % ID/g
- Drug uptake [43]: 1.96 % ID/g

Compound: OCCOc1ncc(/C=C/c2ccc(O)cc2)cc1[125I]
- Drug uptake [2]: 6.66 % ID/g
- Drug uptake [3]: 1.35 % ID/g
- Drug uptake [4]: 0.65 % ID/g
- Drug uptake [5]: 2.5 % ID/g
- Drug uptake [6]: 4.2 % ID/g
- Drug uptake [7]: 1.28 % ID/g
- Drug uptake [8]: 0.51 % ID/g
- Drug uptake [9]: 1.01 % ID/g
- Drug uptake [10]: 0.59 % ID/g
- Drug uptake [11]: 0.21 % ID/g
- Drug uptake [12]: 0.12 % ID/g
- Drug uptake [13]: 14.2 % ID/g
- Drug uptake [14]: 3.1 % ID/g
- Drug uptake [15]: 1.34 % ID/g
- Drug uptake [16]: 1.02 % ID/g
- Drug uptake [17]: 20.4 % ID/g
- Drug uptake [18]: 10 % ID/g
- Drug uptake [19]: 2.94 % ID/g
- Drug uptake [20]: 0.5 % ID/g
- Drug uptake [21]: 0.5 % ID/g
- Drug uptake [22]: 18.3 % ID/g
- Drug uptake [23]: 5.15 % ID/g
- Drug uptake [24]: 2.38 % ID/g
- Drug uptake [25]: 2.63 % ID/g
- Drug uptake [26]: 0.64 % ID/g
- Drug uptake [27]: 1.36 % ID/g
- Drug uptake [28]: 0.62 % ID/g
- Drug uptake [29]: 0.37 % ID/g
- Drug uptake [30]: 0.99 % ID/g
- Drug uptake [31]: 0.26 % ID/g
- Drug uptake [32]: 0.09 % ID/g
- Drug uptake [33]: 0.06 % ID/g
- Drug uptake [34]: 4.38 % ID/g
- Drug uptake [35]: 3.99 % ID/g
- Drug uptake [36]: 13 % ID/g
- Drug uptake [37]: 16 % ID/g
- logD [39]: 2.2
- Drug uptake [40]: 10.1 % ID/g
- Drug uptake [41]: 3.92 % ID/g
- Drug uptake [42]: 1.29 % ID/g
- Drug uptake [43]: 1.56 % ID/g

Compound: CN(C)c1ccc(/C=C/c2cnc(OCCO)c(Br)c2)cc1
- Ki [1]: 0.0036 µM
